How the values were obtained:
[1] = molecular target: T1, sGC α1/β1 heterodimer (Homo sapiens, UniProt Q02108+Q02153); assay: Cell-Based sGC Functional Assay (CASA Assay), cGMP generation in CHO-K1/sGC cells;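 further: reference Compound A is a published heme-dependent sGC activator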; conditions: maximum cGMP production of Compound A set to 100% activation, read-out: % Act. (percent activation relative to Compound A)
T1 construct: expressed in transfected cells
T1 sequence (Q02108 1-690): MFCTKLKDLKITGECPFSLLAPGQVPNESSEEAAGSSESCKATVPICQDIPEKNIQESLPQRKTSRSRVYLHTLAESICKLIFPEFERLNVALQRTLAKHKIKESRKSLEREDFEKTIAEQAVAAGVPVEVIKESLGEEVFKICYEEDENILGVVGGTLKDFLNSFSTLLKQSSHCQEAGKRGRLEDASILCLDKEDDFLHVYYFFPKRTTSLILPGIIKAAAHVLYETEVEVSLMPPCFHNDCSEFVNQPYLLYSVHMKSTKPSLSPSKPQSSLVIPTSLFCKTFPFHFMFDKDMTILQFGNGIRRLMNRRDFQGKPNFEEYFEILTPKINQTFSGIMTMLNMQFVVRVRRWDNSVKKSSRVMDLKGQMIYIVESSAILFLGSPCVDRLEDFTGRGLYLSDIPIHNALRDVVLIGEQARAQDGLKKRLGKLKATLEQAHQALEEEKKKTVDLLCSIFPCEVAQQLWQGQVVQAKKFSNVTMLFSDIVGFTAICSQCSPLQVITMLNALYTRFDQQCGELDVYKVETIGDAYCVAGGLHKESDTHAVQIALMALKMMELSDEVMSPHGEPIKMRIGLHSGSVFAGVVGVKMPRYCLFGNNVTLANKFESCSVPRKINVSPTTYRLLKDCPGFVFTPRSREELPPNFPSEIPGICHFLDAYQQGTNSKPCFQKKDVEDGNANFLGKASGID
T1 sequence (Q02153 1-619): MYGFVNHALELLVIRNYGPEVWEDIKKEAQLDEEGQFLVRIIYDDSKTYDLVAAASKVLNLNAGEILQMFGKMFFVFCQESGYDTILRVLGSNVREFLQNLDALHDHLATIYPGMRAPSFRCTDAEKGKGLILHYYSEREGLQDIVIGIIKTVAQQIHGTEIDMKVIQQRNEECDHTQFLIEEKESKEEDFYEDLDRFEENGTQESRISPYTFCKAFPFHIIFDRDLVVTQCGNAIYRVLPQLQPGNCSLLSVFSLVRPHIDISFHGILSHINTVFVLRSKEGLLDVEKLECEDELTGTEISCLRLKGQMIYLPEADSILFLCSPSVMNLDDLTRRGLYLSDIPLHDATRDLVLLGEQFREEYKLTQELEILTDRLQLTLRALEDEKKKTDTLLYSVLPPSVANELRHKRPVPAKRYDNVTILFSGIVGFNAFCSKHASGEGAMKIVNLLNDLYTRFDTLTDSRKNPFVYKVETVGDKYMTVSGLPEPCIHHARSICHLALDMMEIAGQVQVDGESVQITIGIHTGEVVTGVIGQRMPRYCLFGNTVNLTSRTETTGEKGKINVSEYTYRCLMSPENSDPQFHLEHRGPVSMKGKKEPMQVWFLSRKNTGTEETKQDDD
Procedure, shortened: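 Intracellular cGMP quantified by HTRF competition after 1 h, 37 °C compound exposure, with or without 1 μM DETA-NO, in stable CHO-K1/sGC α1/β1 cells (4×10^5/mL; buffer with 0.5 mM IBMX, 5 mM MgCl2, 10 mM HEPES, 0.05% BSA; 2.5% DMSO). Activation normalized to reference Compound A maximum; 4P fit.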

[2] = test system: Spontaneously hypertensive rats (SHR); assay: Acute Efficacy in Spontaneously Hypertensive Rats (SHR), telemetry blood pressure; type: in vivo, rat; conditions: single oral gavage
Procedure, shortened: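 Male SHR fitted with aortic telemetry transmitters and recovered 14 days; conscious blood pressure sampled 30 s every 10 min. Single oral gavage dose (vehicle 10% transcutol/20% Cremophor/70% water); hourly SBP change versus prior-day vehicle baseline, reported as maximum peak decrease.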

Row | SMILES | Emax [1] [%] | Maximum peak decrease of systolic blood pressure (SBP) in SHR, Cat. ([2]; P.O. 0.3 mpk) | Maximum peak decrease of systolic blood pressure (SBP) in SHR, Cat. ([2]; P.O. 1 mpk) | Maximum peak decrease of systolic blood pressure (SBP) in SHR, Cat. ([2]; P.O. 3 mpk)
1 | Nc1nc(-c2cn3ncnc3c(CCCC(F)(F)F)n2)nc2c1C(c1ccc(F)cn1)(C1CC1)C(=O)N2 (centres unmarked) [Example 34A, 4-amino-5-cyclopropyl-5-(5-fluoropyridin-2-yl)-2-(8-(4,4,4-trifluorobutyl)-[1,2,4]triazolo[1,5-a]pyrazin-6-yl)-5H-pyrrolo[2,3-d]pyrimidin-6(7H)-one] | 235 | C (Category C=SBP in SHRs >40 mmHg) | – | –
2 | Nc1nc(-c2cn3ncnc3c(CCCC(F)(F)F)n2)nc2c1C(c1ccccn1)(C1CC1)C(=O)N2 (centres unmarked) [Example 115A, 4-amino-5-cyclopropyl-5-(pyridin-2-yl)-2-(8-(4,4,4-trifluorobutyl)-[1,2,4]triazolo[1,5-a]pyrazin-6-yl)-5H-pyrrolo[2,3-d]pyrimidin-6(7H)-one] | 118 | – | B (Category B=SBP in SHRs 20-40 mmHg) | –
3 | CCCCc1nc(-c2nc(N)c3c(n2)NC(=O)[C@@]3(C)c2ccc(F)cc2)cn2ncnc12 [Example 60A, (S)-4-amino-2-(8-butyl-[1,2,4]triazolo[1,5-a]pyrazin-6-yl)-5-(4-fluorophenyl)-5-methyl-5,7-dihydro-6H-pyrrolo[2,3-d]pyrimidin-6-one] | 121 | C (Category C=SBP in SHRs >40 mmHg) | – | –
4 | CC1(c2ccc(Cl)cn2)C(=O)Nc2nc(-c3cn4ncnc4c(CCC(F)(F)F)n3)nc(N)c21 (centres unmarked) [Example 79A, 4-amino-5-(5-chloropyridin-2-yl)-5-methyl-2-(8-(3,3,3-trifluoropropyl)-[1,2,4]triazolo[1,5-a]pyrazin-6-yl)-5H-pyrrolo[2,3-d]pyrimidin-6(7H)-one] | 152 | – | B (Category B=SBP in SHRs 20-40 mmHg) | –
5 | CCCc1nc(-c2nc(N)c3c(n2)NC(=O)C3(c2ccc(C(F)(F)F)cn2)C2CC2)cn2ncnc12 (centres unmarked) [Example 56A, 4-amino-5-cyclopropyl-2-(8-propyl-[1,2,4]triazolo[1,5-a]pyrazin-6-yl)-5-(5-(trifluoromethyl)pyridin-2-yl)-5H-pyrrolo[2,3-d]pyrimidin-6(7H)-one] | 81 | – | – | B (Category B=SBP in SHRs 20-40 mmHg)
6 | CC1(c2ccc(F)cn2)C(=O)Nc2nc(-c3cn4ncnc4c(CCC(F)(F)C(F)(F)F)n3)nc(O)c21 (centres unmarked) [Example 122B, 5-(5-fluoropyridin-2-yl)-4-hydroxy-5-methyl-2-(8-(3,3,4,4,4-pentafluorobutyl)-[1,2,4]triazolo[1,5-a]pyrazin-6-yl)-5H-pyrrolo[2,3-d]pyrimidin-6(7H)-one] | 100 | – | B (Category B=SBP in SHRs 20-40 mmHg) | –
7 | CC1(c2ccc(Cl)cn2)C(=O)Nc2nc(-c3cn4ncnc4c(CCCC(F)(F)F)n3)nc(O)c21 (centres unmarked) [Example 134A, 5-(5-chloropyridin-2-yl)-4-hydroxy-5-methyl-2-(8-(4,4,4-trifluorobutyl)-[1,2,4]triazolo[1,5-a]pyrazin-6-yl)-5H-pyrrolo[2,3-d]pyrimidin-6(7H)-one] | 134 | – | B (Category B=SBP in SHRs 20-40 mmHg) | –
8 | CC1(c2ccccn2)C(=O)Nc2nc(-c3cn4ncnc4c(CCCC(F)(F)F)n3)nc(N)c21 (centres unmarked) [Example 36B, 4-amino-5-methyl-5-(pyridin-2-yl)-2-(8-(4,4,4-trifluorobutyl)-[1,2,4]triazolo[1,5-a]pyrazin-6-yl)-5H-pyrrolo[2,3-d]pyrimidin-6(7H)-one] | 82 | – | B (Category B=SBP in SHRs 20-40 mmHg) | –
9 | C[C@@]1(c2ccc(F)cc2)C(=O)Nc2nc(-c3cn4ncnc4c(CCC(F)(F)C(F)(F)F)n3)nc(O)c21 [Example 119A, (S)-5-(4-fluorophenyl)-4-hydroxy-5-methyl-2-(8-(3,3,4,4,4-pentafluorobutyl)-[1,2,4]triazolo[1,5-a]pyrazin-6-yl)-5,7-dihydro-6H-pyrrolo[2,3-d]pyrimidin-6-one] | 124 | – | B (Category B=SBP in SHRs 20-40 mmHg) | –
10 | NC(=O)c1nc(-c2cn3ncnc3c(CCCC(F)(F)F)n2)nc2c1C(c1ccc(C(F)(F)F)cn1)(C1CC1)C(=O)N2 (centres unmarked) [Example 178A] | 108 | – | B (Category B=SBP in SHRs 20-40 mmHg) | –
11 | Cc1nc2c(CCC(F)(F)C(F)(F)F)nc(-c3nc(O)c4c(n3)NC(=O)C4(C)c3ccc(Cl)c(F)c3)cn2n1 (centres unmarked) [Example 132B, 5-(4-chloro-3-fluorophenyl)-4-hydroxy-5-methyl-2-(2-methyl-8-(3,3,4,4,4-pentafluorobutyl)-[1,2,4]triazolo[1,5-a]pyrazin-6-yl)-5H-pyrrolo[2,3-d]pyrimidin-6(7H)-one] | 119 | – | A (Category A=SBP in SHRs <20 mmHg) | –
12 | O=C1Nc2nc(-c3cn4ncnc4c(CCCC(F)(F)F)n3)nc(O)c2C1(c1ccc(F)c(F)c1)C1CC1 (centres unmarked) [Example 141A, 5-cyclopropyl-5-(3,4-difluorophenyl)-4-hydroxy-2-(8-(4,4,4-trifluorobutyl)-[1,2,4]triazolo[1,5-a]pyrazin-6-yl)-5H-pyrrolo[2,3-d]pyrimidin-6(7H)-one] | 133 | – | B (Category B=SBP in SHRs 20-40 mmHg) | –
13 | Nc1nc(-c2cn3ncnc3c(CCCC(F)(F)F)n2)nc2c1C(c1ccc(C(F)(F)F)cn1)(C1CC1)C(=O)N2 (single isomer, unassigned) [Example 2A, 4-Amino-5-cyclopropyl-2-(8-(4,4,4-trifluorobutyl)-[1,2,4]triazolo[1,5-a]pyrazin-6-yl)-5-(5-(trifluoromethyl)pyridin-2-yl)-5H-pyrrolo[2,3-d]pyrimidin-6(7H)-one] | 111 | A (Category A=SBP in SHRs <20 mmHg) | – | –
14 | C[C@@]1(c2ccc(F)cc2)C(=O)Nc2nc(-c3cn4ncnc4c(CCCC(F)(F)F)n3)nc(O)c21 [Example 135A, 5-(4-fluorophenyl)-4-hydroxy-5-methyl-2-(8-(4,4,4-trifluorobutyl)-[1,2,4]triazolo[1,5-a]pyrazin-6-yl)-5,7-dihydro-6H-pyrrolo[2,3-d]pyrimidin-6-one] | 108 | – | B (Category B=SBP in SHRs 20-40 mmHg) | –
15 | Nc1nc(-c2cn3ncnc3c(CCC(F)(F)C(F)(F)F)n2)nc2c1C(c1cncc(F)c1)(C1CC1)C(=O)N2 (centres unmarked) [Example 8B, 4-amino-5-cyclopropyl-5-(5-fluoropyridin-3-yl)-2-(8-(3,3,4,4,4-pentafluorobutyl)-[1,2,4]triazolo[1,5-a]pyrazin-6-yl)-5H-pyrrolo[2,3-d]pyrimidin-6(7H)-one] | 177 | – | – | B (Category B=SBP in SHRs 20-40 mmHg)
16 | CC1(c2ccc(Cl)cc2)C(=O)Nc2nc(-c3cn4ncnc4c(CCCC(F)(F)F)n3)nc(O)c21 (centres unmarked) [Example 142A, 5-(4-chlorophenyl)-4-hydroxy-5-methyl-2-(8-(4,4,4-trifluorobutyl)-[1,2,4]triazolo[1,5-a]pyrazin-6-yl)-5H-pyrrolo[2,3-d]pyrimidin-6(7H)-one] | 137 | B (Category B=SBP in SHRs 20-40 mmHg) | – | –
